# According to PMC7352571, “New Anti-Cancer Strategy to Suppress Colorectal Cancer Growth Through Inhibition of ATG4B and Lysosome Function” (Cancers, 2020):
# How the values were obtained:
# [1] = system: lysosomal membrane permeabilization in HeLa cells; assay: immunostaining, colocalization of cathepsin B and LAMP1; format: cell-based; conditions: 10 µM, 6 h
# Experimental: Figure 5 163N causes lysosome dysfunction. […] (C) HeLa cells were treated with or without 163N (10 µM) for 6 h, followed by immunostaining using cathepsin B and LAMP1 antibody. The colocalization of cathepsin B and LAMP1 was measured.
# (§1) Immunostaining assay was performed as described previously. Cells were fixed in 4% paraformaldehyde for 15–20 min followed by permeabilization with 0.1% Triton X-100 for another 15 min. Then, PBS containing 5% bovine serum albumin was used for blocking. Primary antibodies (1:150) was used at 4° for one night and then secondary antibodies (1:500) were applied at room temperature for 1 h. EVOS FL Auto (Life Technologies) was used to get the fluorescence images. At least three optical fields with at least 100 cells were analyzed for quantification.
# [2] = system: MDA-MB-231 cells; assay: CCK-8 cell viability assay, MDA-MB-231; format: cell-based; conditions: Homo sapiens, CCK-8 assay, 48 h
# Experimental: (§2) Cells were seeded and incubated overnight in 96-well plates at a density of 5 × 10^3 cells/well. […] A total of 10 µL CCK-8 were added to each well for additional 1 h and cell viability was measured by CCK-8 assay. Absorbance was measured at 450 nm. The IC50 values were calculated by GraphPad Prism 7 (GraphPad Software Inc., San Diego, CA, USA).
# [3] = system: HeLa cells; assay: CCK-8 cell viability assay, HeLa; format: cell-based
# Experimental: as §2
# [4] = system: LC3-II in HeLa cells; assay: western blot for LC3 conversion, HeLa; format: cell-based; conditions: 1, 5, 10, 20 µM for 6 h; 10 µM time course
# Experimental: (§3) Figure S2. 163N could inhibit autophagy flux. (A) HeLa cells treated with different concentrations of
# (§4) II/TUBA was calculated using ImageJ software.
# (§5) was examined. The number of GFP-LC3B dots was quantified. Data are presented as mean ± SEM
# (§6) was performed to assess cell viability. […]
# [5] = system: GFP-LC3 A549 cells; assay: GFP-LC3 dots in A549 cells stably expressing GFP-LC3; format: cell-based; conditions: 6 h at different concentrations or 10 µM over time course
# [6] = system: HCT116 xenograft; assay: HCT116 mouse xenograft model; format: in vivo, mice
# Experimental: Figure 7 163N inhibits tumor growth in a HCT116 mouse xenograft model. (A) HCT116 cells ([…]) were injected subcutaneously into the right flank of the immunodeficient nu/nu female mice. Seven days after tumor cell implantation, mice with palpable tumors were divided randomly into two groups and injected intraperitoneal on Monday, Wednesday, and Friday with either corn oil vehicle or 163N (50 mg/kg). Tumor volumes were calculated by the length and width measured by Vernier calipers every 2 d. (B) Body weight changes of mice during 28 d of exposure. (C) Tumor tissues were sectioned and subjected to H&E staining and immunohistochemistry for evaluating histological morphology, and expression of LC3B and SQSTM1. Scale bar: 50 µm. (D) TEM was used to detect the ultrastructure of the representative tumor tissues. Red arrows represent normal autolysosome structures. Data are presented as mean ± SEM. ** p < 0.01 vs VC.
# The animal experimental procedures were approved by the Research Ethics Committee of Sun Yat-sen University (Guangzhou, China), ethic code: SYSU-IACUC-2018-000134. Four-week-old immunodeficient mice (nu/nu, female) were raised in a pathogen-free environment in the Experimental Animal Center of Sun Yat-sen University. Human colorectal cancer HCT116 cells (3 × 10^6) were injected subcutaneously into the right flank of the animals. Seven days after tumor cell implantation, mice with palpable tumors were divided randomly into two groups and injected intraperitoneal on Monday, Wednesday, and Friday of the following treatments: (1) vehicle control (corn oil); (2) 163N (50 mg/kg body weight) dissolved in corn oil. Tumors were measured using calipers and the tumor volume (mm^3) was calculated as follows: V = (L × W2)/2, L and W represents tumor length and width, respectively. At the end of the experiment (5 weeks after tumor implantation), the mice were given 200 µL of pentobarbital sodium (1%) by i.p. 30 min before sacrifice, tumors and organs were collected and weighed.
# [7] = system: LC3-II in HCT116 cells; assay: western blot for LC3 conversion, HCT116; conditions: 1, 5, 10, 20 µM for 6 h; 10 µM time course
# Experimental: The ratio of LC3B-II/TUBA was calculated using ImageJ software. […] The ratio of LC3B-II/TUBA was calculated using ImageJ software. […] Data are presented as mean ± SEM from three individual experiments. ** p < 0.01, *** p <0.001, ns, not significant.
# 20–30 µg of whole cell lysates were separated by SDS-PAGE to avoid saturation and transferred to PVDF membranes (Millipore, ISEQ00010, Burlington, MA, USA). After blocking, the membrane was incubated with primary antibodies and secondary antibodies. Specific proteins were detected using enhanced chemiluminescence developing agent (Millipore, WBULS0500). Images were taken using Kodak Image Station 4000 (Carestream Health, Rochester, NY, USA).
# [8] = system: L02 cells; assay: CCK-8 cell viability assay, normal cells L02; format: cell-based; conditions: at a higher concentration (40 µM), 48 h
# Experimental: as §2, §3, §4, §5, §6
# [9] = system: LC3B and LAMP1 in HeLa cells; assay: immunostaining, colocalization of LC3B and LAMP1; format: cell-based; conditions: 10 µM, 6 h
# Experimental: Figure 4 163N increases the accumulation of autolysosomes. (A) HEK293A cells expressing green fluorescent protein (GFP)-red fluorescent protein (RFP)-LC3 were treated with 163N (10 µM), rapamycin (Rap) (1 µM) or Baf (0.5 µM) for 6 h, then the colocalization of GFP and RFP puncta was detected. […] The colocalization of LC3B and LAMP1 was measured. […] Red arrows indicate normal autolysosome structures. (D) ATG4BKO HeLa cells expressing GFP-LC3[G120] or full length GFP-LC3 were treated with Rap (1 µM), 163N (10 µM), or CQ (40 µM) for 6 h, then the distribution of GFP-LC3 was examined. And the number of GFP-LC3 dots were quantified.
# as §1
# [10] = system: T98G cells; assay: CCK-8 cell viability assay, T98G; format: cell-based; conditions: Homo sapiens, CCK-8 assay, 48 h
# Experimental: as §2
# [11] = system: MRC-5 cells; assay: CCK-8 cell viability assay, normal cells MRC-5; format: cell-based; conditions: at a higher concentration (40 µM), 48 h
# Experimental: as §2, §3, §4, §5, §6
# [12] = system: HCT116 cells; assay: wound healing assay; format: cell-based, Human; conditions: 10 µM, 48 h
# Experimental: Cells were seeded in 12-well plates. After the cells grew to confluence, wounds were made by sterile pipette tips. The cells were photographed at the beginning of wound formation. […] The distance of cell migration was calculated from three independent experiments.
# [13] = system: HCT116 cells; assay: real-time cellular analysis (RTCA); format: cell-based, Human; conditions: 2 µM, wild type HCT116
# Experimental: An E-Plate 16 (ACEA Biosciences, Hangzhou, China) was prepared with 50 µL of DMEM medium added to each well to do a background measurement in the xCELLigence instrument (ACEA Biosciences, China). 100 µL of passaged cell suspensions containing 2.5 × 10^3 cells were added to each well and then cells were settled on the base of the well for 30 min at room temperature. The plate was inserted into the RTCA system (housed within the incubator) and cell index (CI) values were assessed every 5 min over the following 72 h. After 24 h of cell seeding, the assay was paused and 2 µM 163N was added to each well. Then, the plate was placed in the station again and the analysis was restarted. After completing a total of 72 h of analysis, the data were analyzed with GraphPad 7.0 software.
compound,measurement,setting,value
COc1ccc(Nc2cc(C)nc(Nc3ccc(-c4cc5ccccc5o4)cc3)n2)cc1 [Compound 163N],lysosomal membrane permeabilization (cathepsin B/LAMP1 colocalization),[1],did not produce lysosomal membrane permeabilization
same,IC50,[2],9.99 µM
same,"cytotoxicity relative to XOS00163, XOS00201 and XOS00207, HeLa",[3]; HeLa cells,about five times higher cytotoxicity
same,IC50,"[3]; Homo sapiens, HeLa, CCK-8 assay, 48 h",7.06 µM
same,"LC3-II level, HeLa",[4],dose- and time-dependent accumulation of LC3-II
same,GFP-LC3 dots,[5],accumulation of GFP-LC3 dots in dose- and time-dependent manners
same,LC3B and SQSTM1 in tumor tissue by immunohistochemistry,[6]; 50 mg/kg intraperitoneal,increased levels of LC3B and SQSTM1
same,tumor growth,"[6]; 50 mg/kg intraperitoneal Mon/Wed/Fri, nu/nu female mice, vs vehicle",less prominent
same,body weight,"[6]; 50 mg/kg intraperitoneal, 28 d, vs vehicle",no significant changes in body weight
same,"weight index and morphology of heart, liver, spleen, lung, kidney","[6]; 50 mg/kg intraperitoneal, vs vehicle",no significant changes in weight index
same,"LC3-II level, HCT116",[7],dose- and time-dependent accumulation of LC3-II
same,cell viability of normal cells L02,[8],reduce the cell viability
same,LC3 puncta and co-localization with LAMP1,[9],"remarkable increase of LC3 puncta, which were well co-localized with LAMP1"
same,IC50,[10],7.23 µM
same,cell viability of normal cells MRC-5,[11],reduce the cell viability
same,migration of wild type HCT116 cells,[12],significantly inhibited the migration
same,cytotoxic effect in RTCA,[13],significant cytotoxic effects
